Assay results as given in patent publication US20260078089A1, “BIOACTIVE PHYTOCHEMICALS IN ZIZYPHUS AND GUARANA” (Phytoquest Limited, priority 2018, published 2026).

How the values were obtained:
male ddy mouse [1] = test: Maltose loading test, blood glucose in mice; type: in vivo; details: oral maltose 2.5 g/kg, test sample 500 mg/kg body weight, mean n = 5
Experimental: (§1) The animal experimental protocols in this study were approved by the Animal Experiments Committee of the University of Toyama (S-2010 UH-2). Male ddy mice (29-33 g) after an overnight fast were used for acute disaccharide loading tests. Maltose (2.5 g/kg body weight) or Sucrose (2.5 g/kg body weight) as well as the test samples were dissolved in 0.9% NaCl solution and administered to mice via a stomach tube. A control group was loaded with saline only.
(§2) Blood samples for glucose measurements were obtained from the tail vein at 0, 15, 30, 60, and 120 min after disaccharide-loading. The blood glucose levels were measured by a portable kit, Antsence II™ (Sankyo Co. Ltd. Tokyo, Japan). The Zizyphus extract HS0810/142/41 as well as the purified compounds were tested in this way.

α-D-glucosidase [2] = biological target: T1, α-D-glucosidase (Saccharomyces cerevisiae, UniProt P53341); test: Glycosidase assay, p-nitrophenyl substrate; type: biochemical; details: Saccharomyces cerevisiae enzyme; screened at 0.14 mg mL−1 (footnote: 0.4 mM); 20° C
T1 construct: purchased Sigma Aldrich Chemicals Limited
T1 sequence (P53341 whole entry): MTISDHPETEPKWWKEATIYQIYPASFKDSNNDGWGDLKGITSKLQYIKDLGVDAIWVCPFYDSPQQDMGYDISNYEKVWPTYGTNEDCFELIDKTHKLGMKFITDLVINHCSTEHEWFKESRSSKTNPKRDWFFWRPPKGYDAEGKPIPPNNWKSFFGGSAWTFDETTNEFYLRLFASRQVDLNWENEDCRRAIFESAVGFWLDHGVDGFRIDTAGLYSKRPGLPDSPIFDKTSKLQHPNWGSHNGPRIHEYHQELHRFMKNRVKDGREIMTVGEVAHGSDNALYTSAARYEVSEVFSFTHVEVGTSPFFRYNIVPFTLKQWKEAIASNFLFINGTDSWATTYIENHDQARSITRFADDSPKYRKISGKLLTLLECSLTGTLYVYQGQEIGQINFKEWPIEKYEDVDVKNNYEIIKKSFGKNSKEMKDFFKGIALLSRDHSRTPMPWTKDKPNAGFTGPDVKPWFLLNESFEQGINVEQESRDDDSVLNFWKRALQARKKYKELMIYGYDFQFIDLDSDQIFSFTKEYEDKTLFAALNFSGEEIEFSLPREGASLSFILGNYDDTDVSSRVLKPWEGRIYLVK
Experimental: (§3) Glycosidase assays were conducted as described by Watson et al. (Phytochemistry 1997, 46, 255) using p-nitrophenyl-substrates (except sialidase which used methylumbeliferyl-N-acetyineuraminic acid as substrate). Assays were carried out in microtitre plates. Enzymes were assayed in 0.1 M citric acid/0.2 M di-sodium hydrogen phosphate (McIlvaine) buffers at the optimum pH for the enzyme. All assays were carried out at 20° C. All enzymes and substrates were purchased from Sigma Aldrich Chemicals Limited. The incubation mixture consisted of 10 μl of enzyme solution, 10 μl of the iminosugars solution and 50 μl of the appropriate 5 mM p-nitrophenyl substrate made up in McIlvaine buffer at the optimum pH for the enzyme. The reactions were stopped with 0.4 M glycine (pH 10.4) during the exponential phase of the reaction. Absorbances were read at 405 nm. Water was substituted for the alkaloids in the blanks. Reactions were carried out in triplicate.
(§4) Enzyme inhibitor solutions—Compounds were dissolved in distilled water at a concentration of 1 mg mL^−1 and then screened at a concentration of 0.14 mg mL^−1 after dilution of the 1 mg mL^−1 in the assay volumes of substrates.

α-D-glucosidase [3] = biological target: T2, α-D-glucosidase (Oryza sativa subsp. japonica, UniProt Q653V7); test: Glycosidase assay, p-nitrophenyl substrate; type: biochemical; details: Rice enzyme; screened at 0.14 mg mL−1 (footnote: 0.4 mM)
T2 construct: purchased Sigma Aldrich Chemicals Limited
T2 sequence (Q653V7 34-885): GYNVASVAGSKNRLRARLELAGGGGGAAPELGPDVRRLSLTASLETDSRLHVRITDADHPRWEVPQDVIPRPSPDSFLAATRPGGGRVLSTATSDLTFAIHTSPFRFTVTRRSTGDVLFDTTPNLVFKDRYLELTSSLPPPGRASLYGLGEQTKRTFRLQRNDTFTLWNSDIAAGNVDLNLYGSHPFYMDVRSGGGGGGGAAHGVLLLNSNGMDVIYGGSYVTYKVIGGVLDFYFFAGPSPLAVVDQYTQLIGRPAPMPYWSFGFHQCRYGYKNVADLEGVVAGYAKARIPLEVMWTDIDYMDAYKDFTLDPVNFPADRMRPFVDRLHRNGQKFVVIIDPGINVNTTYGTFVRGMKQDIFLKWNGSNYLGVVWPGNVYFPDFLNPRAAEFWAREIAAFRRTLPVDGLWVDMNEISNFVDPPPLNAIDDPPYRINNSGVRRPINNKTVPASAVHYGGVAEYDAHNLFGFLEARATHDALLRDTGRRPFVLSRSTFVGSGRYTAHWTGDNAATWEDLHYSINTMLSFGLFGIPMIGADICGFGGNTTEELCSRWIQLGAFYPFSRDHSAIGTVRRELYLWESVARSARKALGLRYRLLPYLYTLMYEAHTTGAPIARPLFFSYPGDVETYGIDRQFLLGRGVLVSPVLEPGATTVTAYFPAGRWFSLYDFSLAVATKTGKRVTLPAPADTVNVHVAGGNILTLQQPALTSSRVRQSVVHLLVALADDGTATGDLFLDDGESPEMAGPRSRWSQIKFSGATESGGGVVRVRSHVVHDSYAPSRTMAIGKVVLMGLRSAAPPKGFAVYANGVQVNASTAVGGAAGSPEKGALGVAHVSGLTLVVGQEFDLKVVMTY
Experimental: as §3, §4

α-L-fucosidase = biological target: T3, α-L-fucosidase (Bos taurus, UniProt Q2KIM0); test: Glycosidase assay, p-nitrophenyl substrate; type: biochemical; details: Bovine kidney enzyme; screened at 0.14 mg mL−1 (footnote: 0.4 mM)
T3 construct: purchased Sigma Aldrich Chemicals Limited
T3 sequence (Q2KIM0 23-468): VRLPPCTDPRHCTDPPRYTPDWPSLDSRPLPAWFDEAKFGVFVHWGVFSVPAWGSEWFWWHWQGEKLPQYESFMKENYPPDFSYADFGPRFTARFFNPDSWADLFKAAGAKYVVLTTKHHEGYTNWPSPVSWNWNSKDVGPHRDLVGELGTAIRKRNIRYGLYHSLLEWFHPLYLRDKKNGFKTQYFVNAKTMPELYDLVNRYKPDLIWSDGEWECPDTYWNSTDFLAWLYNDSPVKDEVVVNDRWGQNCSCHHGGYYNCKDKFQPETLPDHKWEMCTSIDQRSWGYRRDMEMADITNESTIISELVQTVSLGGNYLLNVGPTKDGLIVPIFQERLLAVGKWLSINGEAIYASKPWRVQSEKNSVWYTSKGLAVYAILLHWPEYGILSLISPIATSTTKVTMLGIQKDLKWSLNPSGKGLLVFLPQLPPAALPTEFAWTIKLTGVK
Experimental: as §3, §4

[4] = biological target: T4, N-acetyl-β-D-hexosaminidase (Aspergillus oryzae, UniProt Q8J2T0); test: Glycosidase assay, p-nitrophenyl substrate; type: biochemical; details: Aspergillus oryzae enzyme; screened at 0.14 mg mL−1 (footnote: 0.4 mM)
T4 construct: purchased Sigma Aldrich Chemicals Limited
T4 sequence (Q8J2T0 97-600): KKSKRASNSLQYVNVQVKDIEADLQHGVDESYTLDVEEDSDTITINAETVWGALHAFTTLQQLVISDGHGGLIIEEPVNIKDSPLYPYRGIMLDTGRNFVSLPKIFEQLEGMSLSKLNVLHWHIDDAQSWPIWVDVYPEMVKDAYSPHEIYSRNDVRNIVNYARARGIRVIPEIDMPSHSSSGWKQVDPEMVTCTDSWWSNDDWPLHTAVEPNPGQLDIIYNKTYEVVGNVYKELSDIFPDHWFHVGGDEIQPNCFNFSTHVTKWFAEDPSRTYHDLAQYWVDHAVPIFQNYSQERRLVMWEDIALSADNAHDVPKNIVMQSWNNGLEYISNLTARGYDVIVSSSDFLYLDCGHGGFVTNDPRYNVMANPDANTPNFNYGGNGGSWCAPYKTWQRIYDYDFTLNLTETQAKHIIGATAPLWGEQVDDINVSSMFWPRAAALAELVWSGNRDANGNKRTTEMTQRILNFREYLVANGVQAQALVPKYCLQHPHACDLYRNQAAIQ
Experimental: as §3, §4

α-D-galactosidase = biological target: T5, α-D-galactosidase (Coffea arabica, UniProt Q42656); test: Glycosidase assay, p-nitrophenyl substrate; type: biochemical; details: Green coffee bean enzyme; screened at 0.14 mg mL−1 (footnote: 0.4 mM)
T5 construct: purchased Sigma Aldrich Chemicals Limited
T5 sequence (Q42656 16-378): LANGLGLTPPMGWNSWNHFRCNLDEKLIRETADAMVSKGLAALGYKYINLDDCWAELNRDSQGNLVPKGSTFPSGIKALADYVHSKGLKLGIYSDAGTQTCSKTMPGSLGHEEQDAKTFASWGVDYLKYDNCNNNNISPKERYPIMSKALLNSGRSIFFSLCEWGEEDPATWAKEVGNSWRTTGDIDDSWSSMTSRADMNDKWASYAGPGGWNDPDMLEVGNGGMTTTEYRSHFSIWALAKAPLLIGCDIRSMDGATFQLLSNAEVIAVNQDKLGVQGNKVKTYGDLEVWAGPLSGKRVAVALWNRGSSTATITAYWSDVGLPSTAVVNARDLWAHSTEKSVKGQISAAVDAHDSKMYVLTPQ
Experimental: as §3, §4

α-D-mannosidase = biological target: T6, α-D-mannosidase (Canavalia ensiformis, UniProt C0HJB3); test: Glycosidase assay, p-nitrophenyl substrate; type: biochemical; details: Jack bean enzyme; screened at 0.14 mg mL−1 (footnote: 0.4 mM)
T6 construct: purchased Sigma Aldrich Chemicals Limited
T6 sequence (C0HJB3 1-981): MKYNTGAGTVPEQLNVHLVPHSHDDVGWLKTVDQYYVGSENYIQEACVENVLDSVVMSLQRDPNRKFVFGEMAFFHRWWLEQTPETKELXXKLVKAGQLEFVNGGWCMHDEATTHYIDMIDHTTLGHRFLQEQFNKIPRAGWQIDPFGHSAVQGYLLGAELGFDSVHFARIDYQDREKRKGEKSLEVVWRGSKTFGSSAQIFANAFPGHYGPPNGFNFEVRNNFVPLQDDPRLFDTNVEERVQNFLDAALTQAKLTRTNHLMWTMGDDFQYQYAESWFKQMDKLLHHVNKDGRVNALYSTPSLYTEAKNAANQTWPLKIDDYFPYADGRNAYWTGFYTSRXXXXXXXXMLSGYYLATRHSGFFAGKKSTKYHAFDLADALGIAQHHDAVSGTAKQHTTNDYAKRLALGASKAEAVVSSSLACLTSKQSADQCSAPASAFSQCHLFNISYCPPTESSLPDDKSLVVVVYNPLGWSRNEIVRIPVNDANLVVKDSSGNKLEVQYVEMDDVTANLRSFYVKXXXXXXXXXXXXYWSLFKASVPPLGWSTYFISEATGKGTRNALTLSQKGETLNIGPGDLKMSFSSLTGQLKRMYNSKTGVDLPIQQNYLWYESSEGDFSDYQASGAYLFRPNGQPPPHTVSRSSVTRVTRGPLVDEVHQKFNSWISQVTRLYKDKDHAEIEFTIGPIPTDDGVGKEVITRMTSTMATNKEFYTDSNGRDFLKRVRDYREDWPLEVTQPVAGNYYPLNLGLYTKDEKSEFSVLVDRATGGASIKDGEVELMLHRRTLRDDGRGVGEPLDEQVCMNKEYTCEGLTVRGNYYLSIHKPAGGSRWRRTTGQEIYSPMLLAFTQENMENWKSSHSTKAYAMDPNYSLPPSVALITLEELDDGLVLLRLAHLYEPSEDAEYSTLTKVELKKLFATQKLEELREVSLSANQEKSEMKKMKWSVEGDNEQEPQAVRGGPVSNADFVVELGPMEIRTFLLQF
Experimental: as §3, §4

male ddy mouse [5] = test: Sucrose loading test, blood glucose in mice; type: in vivo; details: oral sucrose 2.5 g/kg, test sample 500 mg/kg body weight, mean n = 5
Experimental: as §1, §2

[6] = system: sialidase (NanH from T. forsythia); test: Sialidase assay with MUNANA substrate; type: biochemical, Tannerella forsythia; details: 1 mM inhibitor, 2.5 nM sialidase, 0.1 mM MUNANA, pH 7.2
Experimental: (§5) Sialidase assays used 1 mM inhibitor (or water without inhibitor) and 2.5 nM sialidase (including NanH from T. forsythia) incubated in the presence of 0.1 mM methylumbeliferyl-N-acetylneuraminic acid, pH 7.2 in 20 mM sodium phosphate buffer. Reactions were stopped at 30 seconds and 60 seconds via addition of ph 10.5 60 mM sodium carbonate buffer. Release of fluorogenic MU was quantified by measuring fluorescence emission at 450 nm, excitation 350 nm. Percentage sialidase activity was expressed as the change in fluorescence between 30 seconds and 60 seconds compared to that of a reaction without inhibitor. Reactions were carried out in triplicate.
MU release can be used to quantify sialidase activity.
as §5, with “1” for “Sialidase assays used 1”, “forsythia) was” for “forsythia)”, “MUNANA,” for “methylumbeliferyl-N-acetylneuraminic acid,”, “7.2” for “7.2 in”, “Sodium Phosphate” for “sodium phosphate”

β-D-glucosidase = test: Glycosidase assay, p-nitrophenyl substrate; type: biochemical; details: Almond enzyme; screened at 0.14 mg mL−1 (footnote: 0.4 mM)
Experimental: as §3, §4

β-D-mannosidase = test: Glycosidase assay, p-nitrophenyl substrate; type: biochemical; details: Cellullomonas fimi enzyme; screened at 0.14 mg mL−1 (footnote: 0.4 mM)
Experimental: as §3, §4

α-D-glucosidase [7] = test: Glycosidase assay, p-nitrophenyl substrate; type: biochemical; details: Bacillus sterothermphilus enzyme; screened at 0.14 mg mL−1 (footnote: 0.4 mM)
Experimental: as §3, §4

Amyloglucosidase = biological target: T7, Amyloglucosidase (Aspergillus niger, UniProt P69328); test: Glycosidase assay, p-nitrophenyl substrate; type: biochemical; details: Aspergillus niger enzyme; screened at 0.14 mg mL−1 (footnote: 0.4 mM)
T7 construct: purchased Sigma Aldrich Chemicals Limited
T7 sequence (P69328 25-640): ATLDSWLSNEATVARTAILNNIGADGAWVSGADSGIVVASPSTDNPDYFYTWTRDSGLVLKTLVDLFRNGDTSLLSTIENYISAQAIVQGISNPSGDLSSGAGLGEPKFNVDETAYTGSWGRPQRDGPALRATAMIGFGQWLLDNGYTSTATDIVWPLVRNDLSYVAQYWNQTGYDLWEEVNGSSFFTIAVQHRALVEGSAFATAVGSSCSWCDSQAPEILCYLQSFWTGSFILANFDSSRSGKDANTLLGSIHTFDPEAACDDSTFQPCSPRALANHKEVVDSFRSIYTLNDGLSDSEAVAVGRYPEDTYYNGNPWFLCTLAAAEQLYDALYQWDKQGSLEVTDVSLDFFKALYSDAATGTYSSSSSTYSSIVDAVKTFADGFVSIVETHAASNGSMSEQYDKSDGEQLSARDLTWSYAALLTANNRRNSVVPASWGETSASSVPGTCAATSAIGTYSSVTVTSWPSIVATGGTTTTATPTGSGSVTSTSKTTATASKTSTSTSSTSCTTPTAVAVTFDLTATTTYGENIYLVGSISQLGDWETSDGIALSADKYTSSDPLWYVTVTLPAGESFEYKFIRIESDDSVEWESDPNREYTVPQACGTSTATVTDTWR
Experimental: as §3, §4

[8] = system: N-acetyl-β-D-glucosaminidase; test: Glycosidase assay, p-nitrophenyl substrate; type: biochemical; details: screened at 0.14 mg mL−1 (footnote: 0.4 mM)
Experimental: as §3, §4

Naringinase = test: Glycosidase assay, p-nitrophenyl substrate; type: biochemical; details: Penicillium decumbens enzyme; screened at 0.14 mg mL−1 (footnote: 0.4 mM)
Experimental: as §3, §4

β-D-galactosidase = test: Glycosidase assay, p-nitrophenyl substrate; type: biochemical; details: Bovine liver enzyme; screened at 0.14 mg mL−1 (footnote: 0.4 mM)
Experimental: as §3, §4

glucosidases = test: Glycosidase panel, glucosidases overall; type: biochemical; details: panel of glucosidases
Experimental: Glycosidase assays were conducted on Compounds 1 and 3 and an extract of Zizyphus used in the disaccharide loading mouse studies to determine if glucosidase inhibition might explain the effects on blood glucose. A panel of glycosidases were used to be sure any activity found was a selective inhibition and not just non-specific binding to the enzyme.
as §3, with “triplicate. […]” for “triplicate.”

CN1C[C@@H](CO)C[C@H]1C(=O)O [Compound 1, N-methyl-4S-(hydroxymethyl)-2S-pyrrolidinecarboxylic acid]
blood glucose (male ddy mouse [1]; 0 min after administration): 83 mg/dL
blood glucose (male ddy mouse [1]; 15 min after administration): 231 mg/dL
blood glucose (male ddy mouse [1]; 30 min after administration): 187 mg/dL
blood glucose (male ddy mouse [1]; 60 min after administration): 140 mg/dL
blood glucose (male ddy mouse [1]; 120 min after administration): 74 mg/dL
% inhibition (α-D-glucosidase [2]): <5%
% inhibition (α-D-glucosidase [3]): 5%
% inhibition (α-L-fucosidase): 15%
% inhibition [4]: −6%
% inhibition (α-D-galactosidase): <5%
% inhibition (α-D-mannosidase): 18%

CN1C[C@](O)(CO)C[C@H]1C(=O)O [Compound 3, N-methyl-4-hydroxy-4S-(hydroxymethyl)-2S-pyrrolidinecarboxylic acid]
blood glucose (male ddy mouse [1]; 0 min after administration): 83 mg/dL
blood glucose (male ddy mouse [1]; 15 min after administration): 233 mg/dL
blood glucose (male ddy mouse [1]; 30 min after administration): 185 mg/dL
blood glucose (male ddy mouse [1]; 60 min after administration): 130 mg/dL
blood glucose (male ddy mouse [1]; 120 min after administration): 80 mg/dL
% inhibition (α-D-glucosidase [2]): <5%
% inhibition (α-D-glucosidase [3]): 11%
% inhibition [4]: −6%
% inhibition (α-D-galactosidase): <5%
% inhibition (α-D-mannosidase): 6%
blood glucose (male ddy mouse [5]; 0 min after administration): 109 mg/dL
blood glucose (male ddy mouse [5]; 15 min after administration): 183 mg/dL
blood glucose (male ddy mouse [5]; 30 min after administration): 143 mg/dL
blood glucose (male ddy mouse [5]; 60 min after administration): 106 mg/dL
blood glucose (male ddy mouse [5]; 120 min after administration): 80 mg/dL

OC[C@H]1NC[C@H](O)[C@@H](O)[C@@H]1O [DNJ, 1-deoxynojirimycin]
% inhibition [6]: 2%
% inhibition (α-D-glucosidase [2]): 35.67%
% inhibition (β-D-glucosidase): 63.7%
% inhibition (α-D-glucosidase [3]): 99.56%
% inhibition (α-L-fucosidase): 5.86%
% inhibition (β-D-mannosidase): −19.03%
% inhibition [4]: −5.50%
% inhibition (α-D-glucosidase [7]): 99.48%
% inhibition (Amyloglucosidase): 31.71%
% inhibition ([8]; Bovine kidney enzyme): −0.83%
% inhibition ([8]; Jack bean enzyme): 2.76%
% inhibition (α-D-galactosidase): −3.34%
% inhibition (Naringinase): 20.81%
% inhibition (β-D-galactosidase): 0.45%
% inhibition (α-D-mannosidase): 26.65%
glucosidase inhibition (in words) (glucosidases): expected strong inhibition of various glucosidases
